Assay results as given in ChEMBL document CHEMBL1150254, “Dihydroxystyrene metabolites from an association of the sponges Poecillastra wondoensis and Jaspis sp” (J Nat Prod, 2008).
Activity calls are given as the source filed them. No cut-off for these calls is given here.

Key:
Isocitrate lyase = Isocitrate lyase (Candida albicans, UniProt Q9P8Q7); experiment: Inhibition of Candida albicans isocitrate lyase
[1] = Inhibition of Staphylococcus aureus sortase A
K562 = experiment: Antitumor activity against human K562 cells; format: functional, cell-based
A549 = experiment: Antitumor activity against human A549 cells; format: functional, cell-based

Isocitrate lyase, sequence (Q9P8Q7 whole entry): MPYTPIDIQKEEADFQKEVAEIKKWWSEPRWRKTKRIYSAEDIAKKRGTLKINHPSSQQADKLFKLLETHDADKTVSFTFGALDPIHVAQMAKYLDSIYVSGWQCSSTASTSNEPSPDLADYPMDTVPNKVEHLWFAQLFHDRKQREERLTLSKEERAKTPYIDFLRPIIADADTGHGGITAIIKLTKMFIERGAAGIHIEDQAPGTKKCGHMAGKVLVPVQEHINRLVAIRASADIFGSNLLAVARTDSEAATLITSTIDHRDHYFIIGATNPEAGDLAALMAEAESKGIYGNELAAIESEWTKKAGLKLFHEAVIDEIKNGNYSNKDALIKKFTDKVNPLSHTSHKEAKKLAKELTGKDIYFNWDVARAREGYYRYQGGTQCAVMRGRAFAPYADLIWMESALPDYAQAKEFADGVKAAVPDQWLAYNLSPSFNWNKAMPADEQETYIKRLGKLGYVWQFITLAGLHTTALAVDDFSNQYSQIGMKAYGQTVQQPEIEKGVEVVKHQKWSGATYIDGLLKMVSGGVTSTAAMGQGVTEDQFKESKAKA

| SMILES | IC50 (Isocitrate lyase) | IC50 [1] | Activity (K562) | Activity (A549) |
| --- | --- | --- | --- | --- |
| O=S(=O)([O-])O/C=C/c1ccc2c(c1)OC(c1ccc(O)c(O)c1)C(OS(=O)(=O)[O-])O2.[Na+].[Na+] (centres undefined) | 341 µM | > 200 µg/mL | – | – |
| CN(C)C(=N)N.CN(C)C(=N)N.O=S(=O)(O)O/C=C/c1ccc(OC2Oc3ccc(/C=C/OS(=O)(=O)O)cc3OC2c2ccc(O)c(O)c2)c(O)c1 (centres undefined) [listing 1 of 2 here] | > 259 µM | > 200 µg/mL | – | – |
| O=S(=O)(O)O/C=C/c1ccc(OC2Oc3ccc(/C=C/OS(=O)(=O)O)cc3OC2c2ccc(O)c(O)c2)c(O)c1 (centres undefined) | – | – | inactive | inactive |
| CN(C)C(=N)N.O=S(=O)(O)O/C=C/c1ccc2c(c1)OC(C(O)c1ccc(O)c(O)c1)O2 (centres undefined) [listing 1 of 2 here] | > 426 µM | 82.4 µg/mL | – | – |
| C=C(CC(=O)O)C(=O)O [ITACONATE] | 44.6 µM | – | – | – |
| O=S(=O)([O-])O/C=C/c1ccc(O)c(O)c1.[Na+] [JASPISIN] | > 787 µM | 14.6 µg/mL | – | – |
| CN(C)CCc1cn(C(c2ccc(O)c(O)c2)C2Oc3ccc(/C=C\OS(=O)(=O)[O-])cc3O2)cn1.[Na+] (centres undefined) | 91.3 µM | > 200 µg/mL | – | – |
| CN(C)CCc1cn(C(c2ccc(O)c(O)c2)C2Oc3ccc(/C=C/OS(=O)(=O)[O-])cc3O2)cn1.[Na+] (centres undefined) | > 381 µM | > 200 µg/mL | – | – |
| O=S(=O)([O-])O/C=C/c1ccc(OC2Oc3ccc(/C=C/OS(=O)(=O)[O-])cc3OC2c2ccc(O)c(O)c2)c(O)c1.[Na+].[Na+] (centres undefined) | 271 µM | 163.5 µg/mL | – | – |
| CN(C)CCc1cn(C(c2ccc(O)c(O)c2)C2Oc3ccc(/C=C/OS(=O)(=O)[O-])cc3O2)cn1.Cl.[Na+] (mixture of isomers) | > 356 µM | > 200 µg/mL | – | – |
| CN(C)CCc1cn(C(c2ccc(O)c(O)c2)C2Oc3ccc(/C=C\OS(=O)(=O)O)cc3O2)cn1 (centres undefined) | – | – | inactive | inactive |
| O=S(=O)([O-])O/C=C/c1ccc(OC2Oc3cc(/C=C/OS(=O)(=O)[O-])ccc3OC2c2ccc(O)c(O)c2)c(O)c1.[Na+].[Na+] (centres undefined) | 64.2 µM | > 200 µg/mL | inactive | inactive |
| CN(C)C(=N)N.CN(C)C(=N)N.O=S(=O)(O)O/C=C/c1ccc(OC2Oc3ccc(/C=C/OS(=O)(=O)O)cc3OC2c2ccc(O)c(O)c2)c(O)c1 (centres undefined) [listing 2 of 2 here] | – | – | inactive | inactive |
| O=S(=O)([O-])O/C=C/c1ccc2c(c1)OC(C(O)c1ccc(O)c(O)c1)O2.[Na+] (centres undefined) | 306 µM | > 200 µg/mL | – | – |
| COC(OC)C(OC)c1ccc(O)c(O)c1 (centres undefined) | 126 µM | > 200 µg/mL | – | – |
| O=S(=O)(O)O/C=C/c1ccc2c(c1)OC(C(O)c1ccc(O)c(O)c1)O2 (centres undefined) | – | – | inactive | inactive |
| CN(C)CCc1cn(C(c2ccc(O)c(O)c2)C2Oc3ccc(/C=C\OS(=O)(=O)[O-])cc3O2)cn1.Cl.[Na+] (centres undefined) | 164 µM | 68.3 µg/mL | – | – |
| O=S(=O)([O-])O/C=C\c1ccc(O)c(O)c1.[Na+] [ISOJASPISIN] | > 787 µM | 34.2 µg/mL | – | – |
| CN(C)C(=N)N.O=S(=O)(O)O/C=C/c1ccc2c(c1)OC(C(O)c1ccc(O)c(O)c1)O2 (centres undefined) [listing 2 of 2 here] | – | – | inactive | inactive |
